Assay results taken from the Kinase Knowledgebase extract (Sharma et al. 2016).

molecular target: PIK3CB;PIK3CG;PIK3CD;PIK3CA (human) (UniProt P48736); assay: Inhibition of PIK3CA/PIK3CB/PIK3CD/PIK3CG Kinase Activity

Row | Structure (SMILES) | IC50 [nM]
1 | COC[C@H]1OC(=O)/C(=C/N)C2=C(O)C(=O)C3=C([C@H](OC(C)=O)C[C@]4(C)C(=O)CC[C@@H]34)[C@]21C | 2
2 | COC[C@H]1OC(=O)/C(=C/N2CCCC2)C2=C(O)C(=O)C3=C([C@H](OC(C)=O)C[C@]4(C)C(=O)CC[C@@H]34)[C@]21C | 1.1
3 | C=CCN/C=C1/C(=O)O[C@H](COC)[C@@]2(C)C1=C(O)C(=O)C1=C2[C@H](OC(C)=O)C[C@]2(C)C(=O)CC[C@@H]12 | 7.5
4 | COC[C@H]1OC(=O)/C(=C/NCCCN(C)C)C2=C(O)C(=O)C3=C([C@H](OC(C)=O)C[C@]4(C)C(=O)CC[C@@H]34)[C@]21C | 1
5 | COC[C@H]1OC(=O)/C(=C/Sc2ccccc2)C2=C(O)C(=O)C3=C([C@H](OC(C)=O)C[C@]4(C)C(=O)CC[C@@H]34)[C@]21C | 1
6 | COC[C@H]1OC(=O)/C(=C/NCCc2ccccc2)C2=C(O)C(=O)C3=C([C@H](OC(C)=O)C[C@]4(C)C(=O)CC[C@@H]34)[C@]21C | 2
7 | COC[C@H]1OC(=O)/C(=C/NCC(N)=O)C2=C(O)C(=O)C3=C([C@H](OC(C)=O)C[C@]4(C)C(=O)CC[C@@H]34)[C@]21C | 10
8 | COC[C@H]1OC(=O)/C(=C/N(C)Cc2ccccc2)C2=C(O)C(=O)C3=C([C@H](OC(C)=O)C[C@]4(C)C(=O)CC[C@@H]34)[C@]21C | 0.8

The next molecules have a lower IC50 than those just listed; values first:

Row | IC50 [nM] | Structure (SMILES)
9 | 0.3 | COC[C@H]1OC(=O)/C(=C/N(Cc2ccccc2)Cc2ccccc2)C2=C(O)C(=O)C3=C([C@H](OC(C)=O)C[C@]4(C)C(=O)CC[C@@H]34)[C@]21C
10 | 0.1 | COC[C@H]1OC(=O)/C(=C/SC(C)C)C2=C(O)C(=O)C3=C([C@H](OC(C)=O)C[C@]4(C)C(=O)CC[C@@H]34)[C@]21C
11 | 0.1 | C=CCN(/C=C1/C(=O)O[C@H](COC)[C@@]2(C)C1=C(O)C(=O)C1=C2[C@H](OC(C)=O)C[C@]2(C)C(=O)CC[C@@H]12)CC=C
